US20250129078A1, “ERBB2 INHIBITORS” (Cogent Biosciences, Inc., priority 2023, published 2025)

Target: EGFR WT (Homo sapiens (Human), UniProt P00533)
Experiment: ErbB enzyme assay (CisBio HTRF-KinEASE-TK), EGFR WT
Type: biochemical
Settings: ATP at Km (25 μM), 1 h incubation
Method in brief: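 Three-fold DMSO serial dilutions were added to kinase reactions and incubated 1 h at room temperature. Quench used 62.5 nM Sa-XL665 plus 0.25×TK-Ab-Cryptate in detection buffer, followed by another 1 h. Substrate phosphorylation was then measured by dual-wavelength HTRF.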

Chain of EGFR WT (P00533 25-1210): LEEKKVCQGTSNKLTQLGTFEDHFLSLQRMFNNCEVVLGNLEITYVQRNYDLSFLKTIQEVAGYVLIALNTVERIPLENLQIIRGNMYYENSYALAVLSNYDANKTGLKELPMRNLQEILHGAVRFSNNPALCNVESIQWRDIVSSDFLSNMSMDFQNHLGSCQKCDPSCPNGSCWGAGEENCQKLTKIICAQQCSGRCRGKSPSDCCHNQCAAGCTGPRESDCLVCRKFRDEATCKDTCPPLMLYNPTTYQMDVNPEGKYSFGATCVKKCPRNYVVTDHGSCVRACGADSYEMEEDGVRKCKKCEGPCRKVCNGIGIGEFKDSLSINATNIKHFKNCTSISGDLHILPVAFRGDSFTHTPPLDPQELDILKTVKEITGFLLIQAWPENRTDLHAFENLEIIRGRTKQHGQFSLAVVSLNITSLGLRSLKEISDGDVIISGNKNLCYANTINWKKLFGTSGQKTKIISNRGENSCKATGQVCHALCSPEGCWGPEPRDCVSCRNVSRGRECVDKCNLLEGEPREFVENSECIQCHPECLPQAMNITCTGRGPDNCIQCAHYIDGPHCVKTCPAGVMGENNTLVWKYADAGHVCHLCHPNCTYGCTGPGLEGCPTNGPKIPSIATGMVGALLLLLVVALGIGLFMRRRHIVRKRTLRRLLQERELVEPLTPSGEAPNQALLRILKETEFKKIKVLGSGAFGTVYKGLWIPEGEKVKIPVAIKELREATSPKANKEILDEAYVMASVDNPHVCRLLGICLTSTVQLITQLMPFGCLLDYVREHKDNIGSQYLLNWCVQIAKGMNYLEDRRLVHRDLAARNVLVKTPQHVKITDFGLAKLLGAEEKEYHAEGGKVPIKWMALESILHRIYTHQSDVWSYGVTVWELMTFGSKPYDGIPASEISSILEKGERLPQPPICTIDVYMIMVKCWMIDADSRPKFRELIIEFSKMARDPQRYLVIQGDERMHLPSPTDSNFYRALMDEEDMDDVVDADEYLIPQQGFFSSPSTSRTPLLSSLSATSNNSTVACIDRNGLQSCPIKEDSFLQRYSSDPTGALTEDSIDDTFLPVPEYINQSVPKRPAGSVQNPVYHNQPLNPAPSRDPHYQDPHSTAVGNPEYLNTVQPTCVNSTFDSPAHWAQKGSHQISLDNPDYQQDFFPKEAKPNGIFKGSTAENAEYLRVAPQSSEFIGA

`C=CC(=O)N1CC[C@H](Oc2ncc3ncnc(Nc4ccc(Oc5cc(F)c6c(c5)ncn6C)c(C)c4)c3n2)C1` [Compound 389, (S)-1-(3-((8-((4-((7-fluoro-1-methyl-1H-benzo[d]imidazol-5-yl)oxy)-3-methylphenyl)amino)pyrimido[5,4-d]pyrimidin-2-yl)oxy)pyrrolidin-1-yl)prop-2-en-1-one] was tested. Which IC50 did it give?
The IC50 was less than 50 nM.

`C=CC(=O)N1CCN(c2ccc3ncnc(Nc4ccc(Oc5cc6nnn(C)c6c(C)c5F)c(C)c4)c3n2)C[C@H]1C` [Compound 288, (R)-1-(4-(4-((4-((6-fluoro-1,7-dimethyl-1H-benzo[d][1,2,3]triazol-5-yl)oxy)-3-methylphenyl)amino)pyrido[3,2-d]pyrimidin-6-yl)-2-methylpiperazin-1-yl)prop-2-en-1-one] was tested. Which IC50 did it give?
Its IC50 is 100 to 500 nM.

`C=CC(=O)N[C@@H]1CN(c2ccc3ncnc(Nc4ccc(Oc5ccc6c(c5)nnn6C)c(C)c4F)c3n2)CC[C@H]1C` (single isomer, unassigned) [Compound 347] was tested. Which IC50 did it give?
Its IC50 is 100 to 500 nM.

With `C=CC(=O)N1CCN(c2ncc3ncnc(Nc4cc(C)c(Oc5cc(F)c6c(c5)ncn6C)cc4OC)c3n2)CC1` [Compound 38, 1-(4-(8-((4-((7-fluoro-1-methyl-1H-benzo[d]imidazol-5-y1)oxy)-2-methoxy-5-methylphenyl)amino)pyrimido[5,4-d]pyrimidin-2-yl)piperazin-1-yl)prop-2-en-1-one 2,2,2-trifluoroacetate] as the compound, how does the IC50 read?
The IC50 was 100 to 500 nM.

For `C=CC(=O)N[C@H]1CN(c2ccc3ncnc(Nc4ccc(Oc5ccc6c(c5)nnn6C)c(C)c4F)c3n2)C[C@@H]1F` [Compound 300, N-((3S,4S)-4-fluoro-1-(4-((2-fluoro-3-methyl-4-((1-methyl-1H-benzo[d][1,2,3]triazol-5-yl)oxy)phenyl)amino)pyrido[3,2-d]pyrimidin-6-yl)pyrrolidin-3-yl)acrylamide], which IC50 is on record?
Its IC50 is 100 to 500 nM.

For `C=CC(=O)N1[C@H](C)CN(c2ccc3ncnc(Nc4ccc(Oc5ccc6c(c5)nnn6C)c(C)c4)c3n2)C[C@H]1C` [Compound 248, 1-((2R,6R)-2,6-dimethyl-4-(4-((3-methyl-4-((1-methyl-1H-benzo[d][1,2,3]triazol-5-yl)oxy)phenyl)amino)pyrido[3,2-d]pyrimidin-6-yl)piperazin-1-yl)prop-2-en-1-one], which IC50 is on record?
The IC50 was no less than 1000 nM.

For `Cc1cc(Nc2ncnc3ccc(N4CC5CC(C4)N5C(=O)/C=C/C(F)F)nc23)ccc1Oc1ccc2c(c1)nnn2C` [Compound 359, (E)-4,4-difluoro-1-(3-(4-((3-methyl-4-((1-methyl-1H-benzo[d][1,2,3]triazol-5-yl)oxy)phenyl)amino)pyrido[3,2-d]pyrimidin-6-yl)-3,6-diazabicyclo[3.1.1]heptan-6-yl)but-2-en-1-one], which IC50 is on record?
The IC50 was 100 to 500 nM.

For `C=C(F)C(=O)N1CC2CCC1CN2c1ccc2ncnc(Nc3ccc(Oc4ccc5c(c4)nnn5C)c(C)c3)c2n1` (centres unmarked) [Compound 88, 2-fluoro-1-(5-(4-((3-methyl-4-((1-methyl-1H-benzo[d][1,2,3]triazol-5-yl)oxy)phenyl)amino)pyrido[3,2-d]pyrimidin-6-yl)-2,5-diazabicyclo[2.2.2]octan-2-yl)prop-2-en-1-one], which IC50 is on record?
The IC50 was no less than 1000 nM.

For `C=CC(=O)N1CCN(c2ccc3ncnc(Nc4ccc(Oc5cnc6ccnn6c5)c(C)c4)c3n2)CC1` [Compound 319, 1-(4-(4-((3-methyl-4-(pyrazolo[1,5-a]pyrimidin-6-yloxy)phenyl)amino)pyrido[3,2-d]pyrimidin-6-yl)piperazin-1-yl)prop-2-en-1-one], which IC50 is on record?
Its IC50 is less than 50 nM.

Which IC50 does the source give for `C=CC(=O)N[C@H]1CN(c2ccc3ncnc(Nc4ccc(Oc5ccc6c(c5)nnn6C)c(C)c4)c3n2)C[C@@H]1F` [Compound 276, N-((3S,4S)-4-fluoro-1-(4-((3-methyl-4-((1-methyl-1H-benzo[d][1,2,3]triazol-5-yl)oxy)phenyl)amino)pyrido[3,2-d]pyrimidin-6-yl)pyrrolidin-3-yl)acrylamide] here?
Its IC50 is 100 to 500 nM.

`C=CC(=O)N1CCN(c2ncc3ncnc(Nc4ccc(Oc5ccc6c(c5)nnn6C(F)(F)F)c(C)c4)c3n2)C[C@H]1C` [Compound 195, (R)-1-(2-methyl-4-(8-((3-methyl-4-((1-(trifluoromethyl)-1H-benzo[d][1,2,3]triazol-5-yl)oxy)phenyl)amino)pyrimido[5,4-d]pyrimidin-2-yl)piperazin-1-yl)prop-2-en-1-one] was tested. Which IC50 did it give?
Its IC50 is 100 to 500 nM.

With `C=CC(=O)N1CCCN(c2ncc3ncnc(Nc4ccc(Oc5ccc6c(c5)nnn6C)c(C)c4)c3n2)C[C@H]1C` [Compound 227, (R)-1-(2-methyl-4-(8-((3-methyl-4-((1-methyl-1H-benzo[d][1,2,3]triazol-5-yl)oxy)phenyl)amino)pyrimido[5,4-d]pyrimidin-2-yl)-1,4-diazepan-1-yl)prop-2-en-1-one] as the compound, how does the IC50 read?
Its IC50 is no less than 1000 nM.

`C=CC(=O)N1CCN(c2ncc3ncnc(Nc4ccc(Oc5cc6nnn(C)c6c(C)c5F)c(C)c4)c3n2)CC1` [Compound 141, 1-(4-(8-((4-((6-fluoro-1,7-dimethyl-1H-benzo[d][1,2,3]triazol-5-yl)oxy)-3-methylphenyl)amino)pyrimido[5,4-d]pyrimidin-2-yl)piperazin-1-yl)prop-2-en-1-one] was tested. Which IC50 did it give?
The IC50 was 100 to 500 nM.

`C=C(F)C(=O)N1CCN(c2ncc3ncnc(Nc4ccc(Oc5ccc6c(c5)nnn6C)c(C)c4)c3n2)C[C@H]1COC` [Compound 211, (S)-2-fluoro-1-(2-(methoxymethyl)-4-(8-((3-methyl-4-((1-methyl-1H-benzo[d][1,2,3]triazol-5-yl)oxy)phenyl)amino)pyrimido [5,4-d]pyrimidin-2-yl)piperazin-1-yl) prop-2-en-1-one] was tested. Which IC50 did it give?
The IC50 was no less than 1000 nM.

Which IC50 does the source give for `C=CC(=O)N1CCN(c2ccc3ncnc(Nc4cc(C)c(Oc5ccc6c(c5)nnn6C)cc4OC)c3n2)CC1` [Compound 79, 1-(4-(4-((2-methoxy-5-methyl-4-((1-methyl-1H-benzo[d][1,2,3]triazol-5-yl)oxy)phenyl)amino)pyrido[3,2-d]pyrimidin-6-yl)piperazin-1-yl)prop-2-en-1-one] here?
The IC50 was 100 to 500 nM.

For `C=CC(=O)N1CCN(c2ncc3ncnc(Nc4ccc(Oc5cnc6c(c5)ncn6C)c(C)c4F)c3n2)CC1` [Compound 118, 1-(4-(8-((2-fluoro-3-methyl-4-((3-methyl-3H-imidazo[4,5-b]pyridin-6-yl)oxy)phenyl)amino)pyrimido [5,4-d]pyrimidin-2-y1)piperazin-1-yl)prop-2-en-1-one], which IC50 is on record?
Its IC50 is less than 50 nM.

For `C=CC(=O)N1CCCN(c2ncc3ncnc(Nc4ccc(Oc5ccc6c(c5)nnn6C)c(C)c4)c3n2)C[C@@H]1C` [Compound 165, (S)-1-(2-methyl-4-(8-((3-methyl-4-((1-methyl-1H-benzo[d][1,2,3]triazol-5-yl)oxy)phenyl)amino)pyrimido[5,4-d]pyrimidin-2-y1)-1,4-diazepan-1-yl)prop-2-en-1-one], which IC50 is on record?
The IC50 was no less than 1000 nM.

`C=CC(=O)N[C@]1(C)CCN(c2ncc3ncnc(Nc4ccc(Oc5ccc6c(c5)nnn6C)c(C)c4F)c3n2)C1` [Compound 161, (R)-N-(1-(8-((2-fluoro-3-methyl-4-((1-methyl-1H-benzo[d][1,2,3]triazol-5-yl)oxy)phenyl)amino)pyrimido[5,4-d]pyrimidin-2-yl)-3-methylpyrrolidin-3-yl)acrylamide] was tested. Which IC50 did it give?
Its IC50 is less than 50 nM.

`C=CC(=O)N1CCN(c2ccc3ncnc(Nc4ccc(Oc5cc(F)c6c(c5)nnn6C)c(C)c4F)c3n2)C[C@@H]1C1CC1` [Compound 292, (S)-1-(2-cyclopropyl-4-(4-((2-fluoro-4-((7-fluoro-1-methyl-1H-benzo[d][1,2,3]triazol-5-yl)oxy)-3-methylphenyl)amino)pyrido[3,2-d]pyrimidin-6-yl)piperazin-1-yl)prop-2-en-1-one] was tested. Which IC50 did it give?
Its IC50 is 100 to 500 nM.

With `C=CC(=O)N1CCN(c2ncc3ncnc(Nc4ccc(Oc5ccc6c(c5)nnn6C)c(C)c4)c3n2)C[C@@H]1CF` (single isomer, unassigned) [Compound 199] as the compound, how does the IC50 read?
The IC50 was less than 50 nM.

Which IC50 does the source give for `C=CC(=O)N[C@@H]1CCN(c2ccc3ncnc(Nc4ccc(Oc5ccc6c(c5)nnn6C)c(C)c4F)c3n2)CC1(C)C` [Compound 344, (R)-N-(1-(4-((2-fluoro-3-methyl-4-((1-methyl-1H-benzo[d][1,2,3]triazol-5-yl)oxy)phenyl)amino)pyrido[3,2-d]pyrimidin-6-yl)-3,3-dimethylpiperidin-4-yl)acrylamide] here?
Its IC50 is 100 to 500 nM.

`C=CC(=O)N[C@H]1CN(c2ncc3ncnc(Nc4ccc(Oc5ccc6c(c5)nnn6C)c(C)c4F)c3n2)CC[C@@H]1C` [Compound 229, N-((3R,4S)-1-(8-((2-fluoro-3-methyl-4-((1-methyl-1H-benzo[d][1,2,3]triazol-5-yl)oxy)phenyl)amino)pyrimido[5,4-d]pyrimidin-2-yl)-4-methylpiperidin-3-yl)acrylamide] was tested. Which IC50 did it give?
Its IC50 is 100 to 500 nM.

With `C=CC(=O)N1CCN(c2ccc3ncnc(Nc4cc(C)c(Oc5ccc6c(c5)nnn6C)c(F)c4)c3n2)C[C@H]1C` [Compound 255, (R)-1-(4-(4-((3-fluoro-5-methyl-4-((1-methyl-1H-benzo[d][1,2,3]triazol-5-yl)oxy)phenyl)amino)pyrido[3,2-d]pyrimidin-6-yl)-2-methylpiperazin-1-yl)prop-2-en-1-one] as the compound, how does the IC50 read?
Its IC50 is 50 to 100 nM.

How did the IC50 turn out when `C=CC(=O)N1CCN(c2nc3c(Nc4ccc(Oc5ccc6c(c5)nnn6C)c(C)c4)ncnc3cc2OC)CC1` [Compound 98, 1-(4-(7-methoxy-4-((3-methyl-4-((1-methyl-1H-benzo[d][1,2,3]triazol-5-yl)oxy)phenyl)amino)pyrido[3,2-d]pyrimidin-6-yl)piperazin-1-yl)prop-2-en-1-one] was run?
The IC50 was less than 50 nM.

How did the IC50 turn out when `Cc1cc(Nc2ncnc3ccc(N4CCN(C(=O)/C=C/CF)[C@H](C)C4)nc23)ccc1Oc1ccc2c(c1)nnn2C` [Compound 364, (R,E)-4-fluoro-1-(2-methyl-4-(4-((3-methyl-4-((1-methyl-1H-benzo[d][1,2,3]triazol-5-yl)oxy)phenyl)amino)pyrido[3,2-d]pyrimidin-6-yl)piperazin-1-yl)but-2-en-1-one] was run?
The IC50 was 100 to 500 nM.

For `C=CC(=O)N1CCC(Oc2ncc3ncnc(Nc4ccc(Oc5ccc6c(c5)nnn6C)c(C)c4)c3n2)CC1` [Compound 390, 1-(4-((8-((3-methyl-4-((1-methyl-1H-benzo[d][1,2,3]triazol-5-yl)oxy)phenyl)amino)pyrimido[5,4-d]pyrimidin-2-yl)oxy)piperidin-1-yl)prop-2-en-1-one], which IC50 is on record?
The IC50 was less than 50 nM.
